This passage reports IC50 results from ChEMBL document CHEMBL1138977, “Design and synthesis of novel 5,6-disubstituted uracil derivatives as potent inhibitors of thymidine phosphorylase” (Bioorg Med Chem Lett, 2006).

Each structure is given as a SMILES string.

In the test the target is Thymidine phosphorylase (Escherichia coli K-12, UniProt P07650). The test is described as follows: Inhibition of Escherichia coli TP.
Chain of Thymidine phosphorylase (P07650 whole entry): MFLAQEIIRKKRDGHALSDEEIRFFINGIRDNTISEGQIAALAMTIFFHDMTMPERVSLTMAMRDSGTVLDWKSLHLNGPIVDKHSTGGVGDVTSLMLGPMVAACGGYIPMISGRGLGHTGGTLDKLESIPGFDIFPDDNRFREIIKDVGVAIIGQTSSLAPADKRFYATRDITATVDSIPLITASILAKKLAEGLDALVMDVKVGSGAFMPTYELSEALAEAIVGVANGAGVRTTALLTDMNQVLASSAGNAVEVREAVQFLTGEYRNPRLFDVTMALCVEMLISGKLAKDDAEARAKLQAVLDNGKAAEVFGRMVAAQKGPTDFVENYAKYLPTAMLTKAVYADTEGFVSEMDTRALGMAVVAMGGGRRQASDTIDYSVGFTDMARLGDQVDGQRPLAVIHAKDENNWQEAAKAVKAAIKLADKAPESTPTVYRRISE
Consider `Oc1nc(O)c(Cl)c(N2CCCC2)n1`, for which the concentration for half-maximal inhibition (IC50) – broadly, the point on the concentration scale where inhibition reaches its midpoint – came to 4.4 µM. This counts as single-digit micromolar.
The same measure for `Oc1nc(O)c(Br)c(N2CCC2)n1`: 2 µM; for `OCC1CCCCN1c1nc(O)nc(O)c1Br` (stereo unspecified): 6.5 µM.
The same measure for `OCC1CCCCN1c1nc(O)nc(O)c1Cl` (stereo unspecified): 4.3 µM; for `Oc1nc(O)c(Cl)c(N2CCCCC2)n1`: 7.3 µM.
The same measure for `Oc1nc(O)c(Br)c(N2CCN(c3nc(O)nc(O)c3Br)CC2)n1`: 2.3 µM; for `Oc1nc(O)c(Cl)c(N2CCOCC2)n1`: 10.4 µM.
On to `OCC1CCCN(c2nc(O)nc(O)c2Br)C1` (stereo unspecified), for which the IC50 is 6.5 µM.
In turn, `NNc1nc(O)nc(O)c1Cl` displayed a concentration for half-maximal inhibition (IC50) of 9.1 µM. The IC50 values of the last two compounds are within 1.5-fold of each other.
Next, `Oc1nc(O)c(Cl)c(N2CCC2)n1`: 14 µM.
The same measure for `OCC1CCCN(c2nc(O)nc(O)c2Cl)C1` (stereo unspecified): 5.4 µM; for `Oc1nc(O)c(Br)c(NCCNc2nc(O)nc(O)c2Br)n1`: 2.5 µM; for `Oc1nc(O)c(Cl)c(N2CCN(c3nc(O)nc(O)c3Cl)CC2)n1`: 8.7 µM.
The same measure for `Oc1nc(O)c(Cl)c(NC2CC2)n1`: 10.1 µM; for `Oc1nc(O)c(Br)c(N2CCOCC2)n1`: 11.6 µM.
As to `OCC1CCN(c2nc(O)nc(O)c2Br)CC1`, the half-maximal inhibitory concentration (IC50) is 5.5 µM.
`Oc1nc(O)c(Br)c(NC2CC2)n1` had an IC50 of 3.5 µM.
For `OCCC1CCN(c2nc(O)nc(O)c2Cl)CC1`, the half-maximal inhibitory concentration (IC50) was 5.5 µM.
The same measure for `Oc1nc(O)c(Br)c(N2CCCCC2)n1`: 9.1 µM; for `OCCC1CCN(c2nc(O)nc(O)c2Br)CC1`: 6.1 µM.
Next, `Nc1[nH]c(=O)[nH]c(=O)c1Cl`: 4 µM.
